Measured values from patent US5985824A, “Methods and compositions for treating cystic fibrosis” (priority 1997, dated 1999).
Entries after “also recorded” stand apart in the source; their conditions may differ.

Tested on: ΔF508-CFTR (JME/CF15 cells)
Test: SPQ assay, cAMP-stimulated Cl- channel activity, JME/CF15 cells
Format: cell-based, human
Experimental: The cAMP-dependent CFTR Cl^- channel activity was assessed using the halide-sensitive fluorophore 6-methoxy-N-(3-sulfopropyl)-quinolinium (SPQ) essentially as described previously (Cheng et al., (1995), supra.; Marshall et al., supra.). Briefly, the cells were treated with different amounts of DSG for the times specified. At the end of the treatment period, the cells were loaded with SPQ by hypotonic shock for 4 min at room temperature. SPQ fluorescence initially was quenched by incubating the cells for up to 30 min in a NaI buffer (135 mM NaI, 2.4 mM K2 HPO4, 0.6 mM KH2 PO4, 1 mM MgSO4, 1 mM CaSO4, 10 mM dextrose, and 10 mM N-2 hydroxyethylpiperazine-N'2-ethanesulfonic acid, pH 7.4). After measuring the baseline fluorescence (Fo) for 2 min., the NaI solution was replaced with one containing 135 mM NaNO3, and fluorescence was measured for another 16 min. Forskolin (20 μM) and 3-isobutyl-1-methyl-xanthine (IBMX) (100 μM) were added 5 min after the anion substitution to increase intracellular levels of cAMP.
An increase in halide permeability is reflected by a more rapid increase in SPQ fluorescence. It is the rate of change rather than the absolute change in signal that is the important variable in evaluating anion permeability. Differences in absolute levels reflect quantitative differences between groups in SPQ loading, size of cells, or number of cells studied. The data are presented as means± SE of fluorescence at time t (Ft) minus the baseline fluorescence (Fo, the average fluorescence measured in the presence of I^- for 2 min. before ion substitution) and are representative of results obtained under each condition.
For each experiment, between 50 to 100 cells were examined on a given day and studies under each condition were repeated on at least two days. […] There was a broad spectrum in the rate of change in SPQ fluorescence observed with responsive cells. Normally, cells were scored as responsive if they generated a minimum of a […] change in the rate of increase in SPQ fluorescence following stimulation with cAMP agonists. […]

## N=C(N)NCCCCCCC(=O)NC(O)C(=O)NCCCCNCCCN (centres unmarked) [DSG, deoxyspergualin]
72 h
  cAMP-stimulated Cl- channel activity, in words: more robust than that attained when cells were cultured at low temperature; also recorded: a greater number of responsive cells was observed when 10 μg/ml of DSG was used instead of 5 μg/ml; also recorded: no further significant increment in response was noted at concentrations higher than 10 μg/ml; also recorded: increased cAMP-mediated chloride channel activity; also recorded: comparable to that observed when these cells were cultured at a reduced temperature; also recorded: displayed cAMP-responsive Cl^- channel activity
FIG. 4
  percentage of mature CFTR produced from CFTRΔF508 upon exposure to reduced temperatures: increases upon exposure to reduced temperatures
